Values joined by “and” are separate entries in the source; they are usually repeats but may differ in a detail not shown here. Identical values can stand only once.
Tested on: BALB/c mouse heart allografts
Experiment: BALB/c mouse heart allograft survival in C3H/He mice
Format: in vivo
Details: BALB/c heart allograft in C3H/He host; one value per mouse; checked daily by palpitation; time in days
Procedure: A control group of three C3H/He mice received syngeneic transplants. The treatments were given as follows:
Group 1) Anti-CD40L+CTLA4-Ig
Anti-CD40L: 250 μg/injection i.v. (intravenous) on day 0, i.p. (intraperitoneal) on day +2, +4,
CTLA4-Ig: 200 μg/injection i.p. on day 0, +2, +4, +6.
Anti-CD40L: 250 μg/injection i.v. on day 0, i.p. on day +2, +4,
CTLA4-Ig: 200 μg/injection i.p. on day 0, +2, +4, +6,
Group 3) Anti-CD40L+CTLA4-Ig+RPM
CTLA4-Ig: 200 μg/injection i.p. on day 0, +2, +4, +6
RPM: 0.2 mg/kg/day i.p. on day 0, +1, +2, then every other day to day +14.
RPM: 0.2 mg/kg/day i.p. on day 0, +1, +2, then every other day to day +14. The hosts were checked daily for graft survival by palpitation. In addition, other mice were sacrificed for pathologic examination at various time points.

## CO[C@H]1C[C@@H]2CC[C@@H](C)[C@@](O)(O2)C(=O)C(=O)N2CCCC[C@H]2C(=O)O[C@H]([C@H](C)C[C@@H]2CC[C@@H](O)[C@H](OC)C2)CC(=O)[C@H](C)/C=C(\C)[C@@H](O)[C@@H](OC)C(=O)[C@H](C)C[C@H](C)/C=C/C=C/C=C/1C [RPM, rapamycin]
  Graft Survival: > 100 (3×) and > 97 and > 89

— patent US20080089894A1, “Transplant tolerance by costimulation blockade and T-cell activation-induced apoptosis” (priority 1998, published 2008)
